{"source": "patent US11839210B1", "about": "“Plant growth promoter with strigolactones regulation activities” (King Abdullah University of Science and Technology, priority 2017, dated 2023)", "key": {"D27": {"test_system": "D27", "test": "qRT-PCR of D27 gene expression in rice roots after zaxinone treatment", "type": "in vivo, rice (Oryza sativa Nipponbare)", "settings": "−Pi, 6 h", "protocol": "For the analysis of SL transcript levels in the zas mutant, one week-old seedlings were grown hydroponically in half-strength modified Hoagland nutrient solution with K2HPO4·2H2O (+Pi) and without K2HPO4·2H2O (−Pi) for 7 days. Seedlings were further treated with zaxinone for 6 h and tissues were collected.\nTotal RNA was extracted from the roots and shoots using a Qiagen Plant RNeasy Kit according to the manufacturer's instruction. cDNA was synthesized from 1 μg of total RNA using iScript cDNA Synthesis Kit (BIO-RAD Laboratories, Inc, 2000 Alfred Nobel Drive, Hercules, CA, Cat. No #170-8890) according to instructions in the user manual. For mycorrhizal samples, single-strand cDNA was synthesized from 1 μg of total RNA using Super-Script II (Invitrogen) according to instructions in the user manual. Primers used for real-time quantitative RT-PCR (qRT-PCR) analysis are listed below in Table 3. qRT-PCR was performed using SYBR Green Master Mix (Applied Biosystems; www.lifetechnologies.com) in a StepOnePlus (Life Technologies, Carlsbad, CA, USA). For mycorrhizal samples, qRT-PCR was performed using a Rotor-Gene Q 5plex HRM Platform (Qiagen). The 2-ΔCt method was used to calculate the relative gene expression levels and rice Ubiquitin (OsUBQ or OsRubQ1) gene was used as the internal control to normalize target gene expression.\n14-day-old rice seedlings were transferred to new hydroponic pots containing fresh media with or without chemicals for 6 hours. SL biosynthetic (D27, D10, D17 and MAX1-Os900) gene expression were determined under −Pi conditions (phosphate deficient) with zaxinone (2.5 and 5 μM) treatment of both Nipponbare wild-type (WT) rice roots and zas mutant rice roots. The expression levels (1301) were detected by quantitative RT-PCR. Ubiquitin was used as a reference gene. Mock treatment (control) treatment consisted of 0.1% acetone. Bars (1302) show comparisons between the treatments and represent mean±SD (n=3). Decrease in SLs levels in the plants treated with zaxinone ranged from approximately 40% to 70%."}, "Striga hermonthica seeds": {"test_system": "Striga hermonthica seeds", "test": "Striga hermonthica seed germination bioassay with rice root exudates", "type": "in vivo", "protocol": "For the analysis of SLs, one week-old seedlings were further transferred into 50 ml falcon tube (three seedlings per tube) containing Hoagland nutrient solution with K2HPO4·2H2O (+Pi) and grown in the growth cabinet for one week. The rice seedlings were then subjected to phosphate deficiency for another one week period. On the day of root exudates collection, rice seedlings were first treated with 5 μM zaxinone for 6 h and then root exudates and root tissues were collected from each tube for LC-MS/MS analysis and Striga bioassays.\nThe Striga seed germination bioassay was carried out in the following manner After 10 days of pre-conditioning (30° C. under moisture for 10 days), Striga seeds were supplied with 50 μl of SL collected from root exudates of zaxinone treated and non-treated wild-types and zas mutants. After SLs application, Striga seeds were incubated at 30° C. in the dark for two days. Germinated (seeds with radicle) and non-germinated seeds were counted under a binocular to calculate germination rates (%)."}, "[1]": {"test_system": "mycorrhizal wild-type and zas mutant rice plants", "test": "Zaxinone effect on mycorrhizal rice plants (phenotype and AM colonization)", "type": "in vivo, Oryza sativa Nipponbare", "protocol": "Seeds of WT (cv. Nipponbare) and zas mutant were germinated in pots containing sand and incubated for 10 days in a growth chamber under conditions having a 14 h light (23° C.)/10 h dark (21° C.) cycle. Plants used for mycorrhization were inoculated with Funelliformis mosseae (BEG 12, MycAgroLab, France) or Rhizophagus irregularis (INOQ GmbH, Germany) Both fungi inocula (25%) were mixed with sterile quartz sand and used for colonization. Plants were watered with a modified Long-Ashton (LA) solution containing 3.2 μM Na2HPO4·12H2O and were grown in a growth chamber under the 14 h light (24° C.)/10 h dark (20° C.) regime.\nWild-type and zas mycorrhizal plants were grown in sand and watered twice a week with different concentrations of zaxinone (5 μM; 0.5 μM; 50 nM) directly applied in the Long Ashton nutrient solution. Data were collected 35 days post germination (dpg).\nWild-type and zas mycorrhizal roots were stained with 0.1% cotton blue in lactic acid and the estimation of mycorrhizal parameters was performed using MYCOCALC. For the molecular analyses, roots were immediately frozen in liquid nitrogen and stored at −80° C.\nMycorrizhal plants were grown in sand and watered with Long Ashton solution (3.2 μM Pi) for five weeks post AM fungus inoculation. FIGS. 23A-23F show the effect of twice a week treatment with zaxinone (5 μM) for wild-type (WT) and zas mutant (zas) plants. Data are means±SE, n=9 plants. Different letters above the bars indicate significant differences according to Tukey's test (P<0.05)."}}, "data": [{"smiles": "CC(=O)/C=C/C=C(C)/C=C/C1=C(C)C[C@@H](O)CC1(C)C", "note": "[zaxinone, 3-OH-β-apo-13-carotenone]", "values": [{"measurement": "decrease of D27 relative expression vs mock", "setting": "D27; WT rice roots, 2.5 μM zaxinone", "value": "approximately 50%"}, {"measurement": "D27 relative expression", "setting": "D27; WT rice roots, 2.5 μM zaxinone, WT mock approx. 1.0", "value": "approximately 0.5"}, {"measurement": "decrease of D27 relative expression vs mock", "setting": "D27; WT rice roots, 5.0 μM zaxinone", "value": "~75", "unit": "%"}, {"measurement": "D27 relative expression", "setting": "D27; WT rice roots, 5.0 μM zaxinone, WT mock approx. 1.0", "value": "approximately 0.25"}, {"measurement": "decrease of D27 relative expression vs mock", "setting": "D27; zas mutant rice roots, 2.5 μM zaxinone", "value": "approximately 63%"}, {"measurement": "D27 relative expression", "setting": "D27; zas mutant rice roots, 2.5 μM zaxinone, zas mock approx. 3.25", "value": "approximately 1.2"}, {"measurement": "decrease of D27 relative expression vs mock", "setting": "D27; zas mutant rice roots, 5.0 μM zaxinone", "value": "~77", "unit": "%"}, {"measurement": "D27 relative expression", "setting": "D27; zas mutant rice roots, 5.0 μM zaxinone, zas mock approx. 3.25", "value": "approximately 0.75"}, {"measurement": "decrease in germination rate of S. hermonthica seeds vs mock-treated culture medium", "setting": "Striga hermonthica seeds; culture medium from zaxinone treated WT rice", "value": "approximately 50%"}, {"measurement": "decreases in germination rates of S. hermonthica seeds vs mock", "setting": "Striga hermonthica seeds; culture medium from zaxinone treated WT rice and zas mutant rice (both together)", "value": "40-50%"}, {"measurement": "decrease in germination rate of S. hermonthica seeds vs mock-treated culture medium", "setting": "Striga hermonthica seeds; culture medium from zaxinone treated zas mutant rice", "value": "approximately 40%"}, {"measurement": "germination of Striga seeds exposed to root exudates", "setting": "Striga hermonthica seeds; exudates from zaxinone treated zas mutant (zas/Zax), phosphate-starved, 5 μM", "value": "decreased to levels near the germination rates for the wild-type control"}, {"measurement": "germinating activity of root exudates on Striga hermonthica seeds", "setting": "Striga hermonthica seeds; zas exudates, normal phosphorus (+Pi), 5 μM zaxinone, exudates diluted 9 times", "value": "decreased germinating activity of zas exudates (zas/Zax) to a level below that of the wild-type sample"}, {"measurement": "lowering of Striga seed germinating activity of root exudates", "setting": "Striga hermonthica seeds; zas mutant exudates, phosphate-starved, 5 μM zaxinone, 6 h", "value": 40, "unit": "%"}, {"measurement": "AM colonization capacity", "setting": "[1]; 5 μM zaxinone", "value": "did not improve"}, {"measurement": "growth vs Mock treatment", "setting": "[1]; WT mycorrhizal plants, 5 μM zaxinone twice a week, five weeks", "value": "did not significantly differ"}, {"measurement": "crown root number, root biomass, shoot length and shoot biomass", "setting": "[1]; zas mutant mycorrhizal plants, 5 μM zaxinone twice a week, five weeks", "value": "significant increase"}]}]}
